Each structure is given as a SMILES string. Some results are limits rather than exact numbers.

The assay deals with T1, Human FXRα Ligand Binding Domain (FXRα LBD) (Homo sapiens, UniProt Q96RI1).
T1 construct: polyhistidine (N); made in house; host or cells: E. coli BL21 (DE3), pRSET-A vector
T1 sequence (Q96RI1 222-472 isoform Q96RI1-2): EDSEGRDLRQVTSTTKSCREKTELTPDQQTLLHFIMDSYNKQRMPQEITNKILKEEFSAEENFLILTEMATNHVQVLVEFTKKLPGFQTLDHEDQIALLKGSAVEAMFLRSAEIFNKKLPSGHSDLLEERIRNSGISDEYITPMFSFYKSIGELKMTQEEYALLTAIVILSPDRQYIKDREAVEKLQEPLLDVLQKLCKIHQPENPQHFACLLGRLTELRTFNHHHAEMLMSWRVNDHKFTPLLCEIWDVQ
The assay is described as follows: FXR Affinity Binding Assay: ligand mediated cofactor peptide (SRC-1 LCD2, 676-700) interaction, time resolved fluorescence. To be noted: FXRα LBD-APC / europium labeled SRC-1 peptide, TRF signal, at least 2 hours at room temperature; read-out: Activity (pEC50) (converted). How it is done: Determination of a ligand mediated cofactor peptide interaction to quantify ligand binding to the nuclear receptor Farnasoid X Receptor (FXR). The method measures the ability of putative ligands to modulate the interaction between the purified bacterial expressed FXRα (LBD) and a synthetic biotinylated peptide based on residues 676-700 of SRC-1(LCD2, 676-700). […] Detection of the associated complex is measured by time resolved fluorescence (TRF). The purified LBD of FXR is labeled with biotin then mixed with stoichiometric amounts of APC labeled streptavidin (Molecular Probes). The biotinylated peptide is then mixed with a ½ stoichiometric amount of europium labeled streptavidin (Wallac Inc). Each is then blocked with a 5 fold excess of biotin and allowed to equilibrate for 15 min. Equimolar amounts of receptor and peptide are mixed together and allowed to equilibrate for at least 30 min prior to the addition to either a variable or constant concentrations of the sample for which the affinity is to be determined. After equilibration, the time-resolved fluorescent signal is quantitated using a fluorescent plate reader. The affinity of the test compound is estimated from a plot of fluorescence versus concentration of test compound added.
Ligands that promote the complex formation induce a concentration-dependent increase in time-resolved fluorescent signal.
Human FXRα Ligand Binding Domain (FXRα LBD) was expressed in E.coli strain BL21 (DE3) as an amino-terminal polyhistidine tagged fusion protein. Expression was under the control of an IPTG inducible T7 promoter. DNA encoding this recombinant protein was subcloned into the pRSET-A expression vector (Invitrogen). The coding sequence of Human FXRα LBD was derived from Genbank accession number U 68233 (amino acids 222 to 472).
Routinely, 30-40 g cell paste (equivalent to 2-3 liters of the fermentation batch) was resuspended in 200-250 mL TBS, pH 7.2 (25mM Tris, 150 mM NaCl). Cells were lysed by passing 3 times through a French Press and cell debris was removed by centrifugation (30 minutes, 20,000 g, 4° C.). The cleared supernatant was filtered through course pre-filters, and TBS, pH 7.2, containing 500 mM imidazole was added to obtain a final imidazole concentration of 50 mM. This lysate was loaded onto a column (6×8 cm) packed with Sepharose [Ni^++ charged]Chelation resin (Pharmacia) and pre-equilibrated with TBS pH 7.21 50 mM imidazole. After washing to baseline absorbance with equilibration buffer, the column was washed with one column volume of TBS pH 7.2 containing 90 mM imidazole. FXRαLBD was eluted directly with 365 mM imidazole. Column fractions were pooled and dialyzed against TBS, pH 7.2, containing 0.5 mM EDTA and 5 mM DTT. The dialyzed protein sample was concentrated using Centri-prep 10 K (Amicon) and subjected to size exclusion, using a column (3×90 cm) packed with Sepharose S-75 resin (Pharmacia) pre-equilibrated with TBS, pH 7.2, containing 0.5 mM EDTA and 5 mM DTT.
Purified FXRα LBD was desalted/buffer exchanged using PD-10 gel filtration columns into PBS [100 mM NaPhosphate, pH 7.2, 150 mM NaCl]. FXRα LBD was diluted to approximately 10 μM in PBS and five-fold molar excess of NHS-LC-Biotin (Pierce) was added in a minimal volume of PBS. This solution was incubated with gentle mixing for 30 minutes at room temperature. The biotinylation modification reaction was stopped by the addition of 2000× molar excess of Tris-HCl, pH 8. The modified FXRα LBD was dialyzed against 4 buffer changes, each of at least 50 volumes, PBS containing 5 mM DTT, 2 mM EDTA and 2% sucrose.
Take `CC(C)c1onc(-c2c(Cl)cccc2Cl)c1COc1ccc(NS(=O)(=O)c2ccc(C(=O)O)cc2)c(Cl)c1` [Example 56, 4-{[(2-Chloro-4-{[3-(2,6-dichlorophenyl)-5-isopropylisoxazol-4-yl]methoxy}phenyl)-amino]sulfonyl}benzoic acid]: the EC50 was 1020 to 10000 nM.
Next, `Cc1cc(OCc2c(-c3c(Cl)cccc3Cl)noc2C(C)C)ccc1N(C)Cc1ccc(C(=O)O)o1` [Example 4, 5-[(4-{[3-(2,6-Dichlorophenyl)-5-isopropyl-4-isoxazolyl]methoxy}-2-dimethylanilino)methyl]-2-furoic acid]: 102 to 1000 nM; `Cc1cc(OCc2c(-c3ccccc3OC(F)(F)F)noc2C(C)C)ccc1N(C)C(=O)c1cccc(C(=O)O)c1` [Example 32, 3-{[4-({5-Isopropyl-3-[2-(trifluoromethoxy)phenyl]-4-isoxazolyl}methoxy)-2-dimethylanilino]carbonyl}benzoic acid]: 102 to 1000 nM; `CC(C)c1onc(-c2c(Cl)cccc2Cl)c1COc1ccc(COc2ccc(C(=O)O)cc2)c(Cl)c1` [Example 81, 4-[(2-Chloro-4-{[3-(2,6-dichlorophenyl)-5-isopropylisoxazol-4-yl]methoxy}benzyl)oxy]benzoic acid]: under 100 nM.
Next, `CCN(c1ccc(OCc2c(-c3c(Cl)cccc3Cl)noc2C(C)C)cc1)S(=O)(=O)c1ccc(C(=O)OC)cc1` [Example 61, Methyl 4-{[(4-{[3-(2,6-dichlorophenyl)-5-isopropylisoxazol-4-yl]methoxy}phenyl)-(ethyl)amino]sulfonyl}benzoate]: 1020 to 10000 nM; `Cc1cc(OCc2c(Cc3c(Cl)cccc3Cl)noc2C(C)C)ccc1N(C)Cc1cccc(C(=O)O)c1` [Example 15, 3-[(4-{[3-(2,6-Dichlorobenzyl)-5-isopropyl-4-isoxazolyl]methoxy}-2-dimethylanilino)methyl]benzoic acid]: 102 to 1000 nM.
Next, `COC(=O)c1ccc(S(=O)(=O)Nc2ccc(OCc3c(-c4c(Cl)cccc4Cl)noc3C(C)C)cc2Cl)cc1` [Example 53, Methyl 4-{[(2-chloro-4-{[3-(2,6-dichlorophenyl)-5-isopropylisoxazol-4-yl]methoxy}-phenyl)amino]sulfonyl}benzoate]: 102 to 1000 nM; `Cc1cc(OCc2c(-c3ccccc3OC(F)(F)F)noc2C(C)C)ccc1N(C)Cc1cccc(C(=O)O)c1` [Example 20, 3-{[4-({5-Isopropyl-3-[2-(trifluoromethoxy)phenyl]-4-isoxazolyl}methoxy)-2-dimethylanilino]methyl}benzoic acid]: under 100 nM.
With `COC(=O)c1cccc(S(=O)(=O)Nc2ccc(OCc3c(-c4c(Cl)cccc4Cl)noc3C(C)C)cc2C)c1` [Example 37, Methyl 3-{[1(4-{[3-(2,6-dichlorophenyl)-5-isopropylisoxazol-4-yl]methoxy}-2-methylphenyl)amino]sulfonyl}benzoate], the EC50 was 102 to 1000 nM.
Turning to `COC(=O)c1cccc(SCc2ccc(OCc3c(-c4ccccc4OC(F)(F)F)noc3C(C)C)cc2C)c1` [Example 89, Methyl 3-{[4-({5-isopropyl-3-[2-(trifluoromethoxy)phenyl]isoxazol-4-yl}methoxy)-2-methylbenzyl]thio}benzoate], the EC50 was 102 to 1000 nM.
Next, `CC(C)c1onc(-c2c(Cl)cccc2Cl)c1COc1ccc(NC(=O)c2cccc(C(=O)O)c2)c(Cl)c1` [Example 28, 3-[(2-Chloro-4-{[3-(2,6-dichlorophenyl)-5-isopropyl-4-isoxazolyl]methoxy}anilino)carbonyl]benzoic acid]: 102 to 1000 nM; `COC(=O)c1cccc(COc2ccc(OCc3c(-c4c(Cl)cccc4Cl)noc3C(C)C)cc2C)c1` [Example 100, Methyl 3-[(4-{[3-(2,6-dichlorophenyl)-5-isopropylisoxazol-4-yl]methoxy}-2-methyl-phenoxy)methyl]benzoate]: 102 to 1000 nM; `CC(C)c1onc(-c2c(Cl)cccc2Cl)c1COc1ccc(NS(=O)(=O)c2ccc(C(=O)O)cc2)cc1` [Example 58, 4-{[(4-{[3-(2,6-Dichlorophenyl)-5-isopropylisoxazol-4-yl]methoxy}phenyl)amino]-sulfonyl}benzoic acid]: 102 to 1000 nM.
Next, `Cc1cc(OCc2c(-c3c(Cl)cccc3Cl)noc2C(C)C)ccc1N(C)Cc1ccc2nonc2c1` [Example 7, N-(2,1,3-Benzoxadiazol-5-ylmethyl)-4-{[3-(2,6-dichlorophenyl)-5-isopropyl-4-isoxazolyl]methoxy}-N,2-dimethylaniline]: 102 to 1000 nM; `Cc1cc(OCc2c(-c3c(Cl)cccc3Cl)noc2C(C)C)ccc1NS(=O)(=O)c1ccc(C(=O)O)cc1` [Example 57, 4-{[(4-{[3-(2,6-Dichlorophenyl)-5-isopropylisoxazol-4-yl]methoxy}-2-methylphenyl)-amino]sulfonyl}benzoic acid]: 102 to 1000 nM.
Next, `Cc1cc(OCc2c(-c3ccccc3OC(F)(F)F)noc2C(C)C)ccc1CSc1cccc(C(=O)O)c1` [Example 91, 3-{[4-({5-Isopropyl-3-[2-(trifluoromethoxy)phenyl]isoxazol-4-yl}methoxy)-2-methyl-benzyl]thio}benzoic acid]: 102 to 1000 nM.
On to `Cc1cc(OCc2c(-c3c(Cl)cccc3Cl)noc2C(C)C)ccc1CSc1cccc(C(=O)O)c1` [Example 80, 3-[(4-{[3-(2,6-Dichlorophenyl)-5-isopropylisoxazol-4-yl]methoxy}-2-methylbenzyl)thio]-benzoic acid], for which the EC50 is under 100 nM.
Next, `CC(C)c1onc(-c2c(Cl)cccc2Cl)c1COc1ccc(N(C)S(=O)(=O)c2cccc(C(=O)O)c2)c(Cl)c1` [Example 47, 3-{[(2-Chloro-4-{[3-(2,6-dichlorophenyl)-5-isopropylisoxazol-4-yl]methoxy}phenyl)-(methyl)amino]sulfonyl}benzoic acid]: under 100 nM.
Turning to `CCc1onc(Cc2c(Cl)cccc2Cl)c1COc1ccc(N(C)S(=O)(=O)c2cccc(C(=O)O)c2)c(C)c1` [Example 74, 3-{[(4-{[3-(2,6-Dichlorobenzyl)-5-ethylisoxazol-4-yl]methoxy}-2-methylphenyl)(methyl)-amino]sulfonyl}benzoic acid], the EC50 is 102 to 1000 nM.
In the case of `CCN(c1ccc(OCc2c(-c3c(Cl)cccc3Cl)noc2C(C)C)cc1C)S(=O)(=O)c1cccc(C(=O)OC)c1` [Example 44, Methyl 3-{[(4-{[3-(2,6-dichlorophenyl)-5-isopropylisoxazol-4-yl]methoxy}-2-methyl-phenyl)(ethyl)amino]sulfonyl}benzoate] it was 102 to 1000 nM.
Next, `Cc1cc(OCc2c(-c3c(Cl)cccc3Cl)noc2C(C)C)ccc1COc1cccc(C(=O)O)c1` [Example 79, 3-[(4-{[3-(2,6-Dichlorophenyl)-5-isopropylisoxazol-4-yl]methoxy}-2-methylbenzyl)oxy]-benzoic acid]: under 100 nM; `COC(=O)c1cccc(N(C)Cc2ccc(OCc3c(-c4c(Cl)cccc4Cl)noc3C(C)C)cc2Cl)c1` [Example 92, Methyl 3-[(2-chloro-4-{[3-(2,6-dichlorophenyl)-5-isopropylisoxazol-4-yl]methoxy}benzyl)(methyl)amino]benzoate]: 102 to 1000 nM.

Values taken from US7319109B2, “Farnesoid X receptor agonists” (Smith Kline Beecham Corporation, priority 2002, dated 2008).
